Reference: patent publication US9056923B2, “Mimetic peptides derived from collagen type IV and their use for treating angiogenesis- and lymphagiogenesis-dependent diseases” (THE JOHNS HOPKINS UNIVERSITY, priority 2010, dated 2015)
Square brackets hold non-standard residues; d marks the D form. Ends that are not written are not given here. Peptide text beside a SMILES is read from it. Phe(4-Cl) = N[C@@H](Cc1ccc(Cl)cc1)C(=O)O; Nle = CCCC[C@H](N)C(=O)O; Abu = CC[C@H](N)C(=O)O

Columns and labels:
Assay type in all cases: cell-based, human
HUVEC [1] = test: HUVEC migration assay (RT-CIM); details: for Activity in Migration: Yes/No summary, active = inhibitory potential greater than 30%; for Migration Inhibition (50 uM): 50 uM peptide
Description: The inhibitory potential of the peptides was measured using a real time migration assay system based on electrical impedance (RT-CIM, ACEA Biosciences, CA). CIM 16 well plates (Roche, 05665817001) are composed of a top and bottom chamber separated by a microporous (8 μm) polycarbonate membrane. The membrane was coated with fibronectin (20 μg/mL), and 45,000 cells/well in serum free media with or without peptides were added to the top compartment. Media with chemoattractant (i.e., fully supplemented EBM-2) was added to the bottom compartment of the chamber and the plate was incubated at 37° C. for 20 hours. The sensors integrated on the bottom side of the membrane monitor and continuously record changes in impedance as the cells move through the membrane. The RT-CIM technology allows for easy quantification of cell migration by monitoring the cell index derived from the measured impedances. Assays were performed in at least two independent replicates and each replicate was performed using two experimental duplicates.

HUVEC [2] = details: HUVEC; for Activity in Adhesion: Yes/No summary, active = inhibitory potential greater than 30%; for Adhesion Inhibition (100 uM): 100 uM peptide
Description: Similar to the migration assays, the inhibition activity of the peptide in cellular adhesion was assessed using the RT-CIM technology. In this case, 25,000 cells/well were plated in 16 wells E-plates (Roche, Basel Switzerland) in the presence or absence of the peptide. The adhesion was monitored over time (3 hours) by measuring changes in the electrical impedance, which is a direct measure of the cells adhering on the electrodes. […] Assays were performed in at least two independent replicates and each replicate was performed using two experimental duplicates.

HUVEC [3] = test: HUVEC tube formation assay on Matrigel; details: for Tube formation Inhibition (100 uM): 100 uM peptide; for Activity in Tube formation: Yes/No summary; for inhibition of tube formation: concentration not given; for inhibition of tube formation (FIG. 20): high dose, 100 nM
Description: The compounds also were tested for their ability to inhibit tube formation, a process critical in angiogenesis. Endothelial cells spontaneously form a network of tubes when plated on extracts of extracellular matrix. This in vitro assay combines aspects of adhesion and migration and it is routinely used in angiogenesis research (Oliveira-Ferrer et al., 2008). The ability to inhibit tube formation is a comprehensive assessment of the anti-angiogenic potential. The protocol was described by Arnaoutova et al. (2009) and it consists of plating HUVEC on top of basement membrane extract and after incubation at 37° C. the cells naturally rearrange themselves in a network of tubes. Thus, 50 μL/well of Matrigel (BD Biosciences, San Jose, Calif.) was plated in a cold 96 well plate and incubated at 37° C. for 30 min for polymerization. 15,000 cells/well were added to the top of the gel and incubated in complete media in the presence or absence of peptide for 19 hours. Images were captured using the CCD Sensicam mounted on a Nikon microscope (Eclipse T-100). Assays were performed in at least two independent replicates and each replicate was performed using three experimental replicates and one image of a randomly chosen field was acquired per well.

HUVEC [4] = details: for Activity in Proliferation: Yes/No summary
Description: Several assays were used to test the peptides discussed in the Examples herein. A colorimetric based proliferation assay using WST-1 (Roche, 11644807001) proliferation reagent was carried out using HUVEC cells. 2000 cells/well were plated in 96-well plates and allowed to adhere overnight. On the following day, the media was exchanged with fully supplemented media containing peptides or equivalent DMSO vehicle for the controls. Three days later the media containing the peptides was replaced with serum-free EBM-2 media containing WST-1 reagent and the plates were incubated for four hours as per the manufacturer's recommendations. Changes in color, due to the formazan dye resulted from the cleavage of the tetrazolium salt WST-1 by the mitochondrial succinate-tetrazolium reductase, were read on a Victor V fluorescence plate reader (Perkin Elmer, MA) by measuring the absorbance at 450 nm Dose response curves of percent live cells (in comparison to untreated cells but incubated in complete media with 0.2% DMSO) were created. Assays were performed in at least two independent replicates and each replicate was performed using three experimental triplicates.

In the case of `CC[C@H](NC(=O)[C@H](Cc1ccccc1)NC(=O)[C@H](CCSC)NC(=O)[C@H](Cc1ccccc1)NC(=O)[C@@H]1CCCN1C(=O)[C@H](CCSC)NC(=O)[C@@H](NC(=O)[C@H](CO)NC(=O)[C@H](Cc1ccccc1)NC(=O)[C@H](CCCNC(=N)N)NC(=O)[C@H](CCCNC(=N)N)NC(=O)[C@@H](N)CC(C)C)[C@@H](C)O)C(=O)N[C@@H](CC(N)=O)C(=O)N[C@H](C(=O)N[C@@H](CC(N)=O)C(=O)N[C@H](C(=O)O)C(C)C)[C@@H](C)CC` [SP2006, LRRFSTMPFMFAbuNINV] (H-LRRFSTMPFMF[Abu]NINV-OH; N-terminus and C-terminus assumed), the “Activity in Migration” value (HUVEC [1]) is reported as “No”, the “migration inhibition” value (HUVEC [1]; concentration not given) is reported as 18% and the “inhibition of adhesion at 50 μM” value (HUVEC [2]; 50 μM peptide) is reported as “inhibition of adhesion”. The “Activity in Adhesion” value (HUVEC [2]) was “Yes”, the “Tube formation Inhibition (100 uM)” value (HUVEC [3]) was “Complete” and the “Activity in Tube formation” value (HUVEC [3]) was “Yes”. For the same compound, the “inhibition of tube formation” value (HUVEC [3]) was “Inhibition of tube formation”, the “inhibition of tube formation (FIG. 20)” value (HUVEC [3]) was “active at inhibiting tube formation” and the “inhibition of proliferation” value (HUVEC [4]; HUVEC) was “did not inhibit proliferation”. The “Activity in Proliferation” value (HUVEC [4]; HUVEC) was “No”.
In the case of `CC[C@H](NC(=O)[C@H](Cc1ccccc1)NC(=O)[C@H](CCSC)NC(=O)[C@H](Cc1ccccc1)NC(=O)[C@@H]1CCCN1C(=O)[C@H](CCSC)NC(=O)[C@@H](NC(=O)[C@H](CO)NC(=O)[C@H](Cc1ccccc1)NC(=O)[C@H](CCCNC(=N)N)NC(=O)[C@H](CCCNC(=N)N)NC(=O)[C@@H](N)CC(C)C)[C@@H](C)O)C(N)=O` [SP2007, LRRFSTMPFMFAbu] (H-LRRFSTMPFMF[Abu]-NH2; N-terminus assumed), the “Migration Inhibition (50 uM)” value (HUVEC [1]) is reported as “Inactive”, the “Activity in Migration” value (HUVEC [1]) is reported as “No” and the “inhibition of migration” value (HUVEC [1]; concentration not given) is reported as “absence of activity”. The “Adhesion Inhibition (100 uM)” value (HUVEC [2]) was 11%, the “Activity in Adhesion” value (HUVEC [2]) was “No” and the “inhibition of adhesion” value (HUVEC [2]; concentration not given) was “absence of activity”. The “Tube formation Inhibition (100 uM)” value (HUVEC [3]) was “Inactive”, the “Activity in Tube formation” value (HUVEC [3]) was “No” and the “Activity in Proliferation” value (HUVEC [4]; HUVEC) was “No”. The “Proliferation Inhibition (IC50 in uM)” value (HUVEC [4]; HUVEC, summary tables 2-4, 6, 7) was “Inactive”.
With `CC[C@H](NC(=O)[C@H](Cc1ccccc1)NC(=O)[C@H](CCSC)NC(=O)[C@@H](N)Cc1ccccc1)C(=O)N[C@@H](CC(N)=O)C(=O)N[C@H](C(=O)N[C@@H](CC(N)=O)C(=O)N[C@@H](CC(N)=O)C(=O)N[C@H](C(=O)N[C@@H](CC)C(=O)N[C@@H](CC(N)=O)C(=O)N[C@@H](Cc1ccccc1)C(=O)O)C(C)C)[C@@H](C)CC` [SP2010, FMFAbuNINNVAbuNF] (H-FMF[Abu]NINNV[Abu]NF-OH; N-terminus and C-terminus assumed) the “Migration Inhibition (50 uM)” value (HUVEC [1]) was 13%, the “Activity in Migration” value (HUVEC [1]) was “No” and the “Adhesion Inhibition (100 uM)” value (HUVEC [2]) was 82.69%. The “Activity in Adhesion” value (HUVEC [2]) was “Yes”, the “Tube formation Inhibition (100 uM)” value (HUVEC [3]) was “complete inhibition of tube formation” and the “Activity in Tube formation” value (HUVEC [3]) was “Yes”. For the same compound, the “inhibition of tube formation (FIG. 20)” value (HUVEC [3]) was “displayed activity in inhibiting tube formation”, the IC50 (HUVEC [4]) was 155 µM and the “Activity in Proliferation” value (HUVEC [4]; HUVEC) was “No”.
For `CC[C@H](NC(=O)[C@H](Cc1ccccc1)NC(=O)[C@H](CCSC)NC(=O)[C@H](C)NC(=O)[C@@H]1CCCN1C(=O)[C@H](CCSC)NC(=O)[C@@H](NC(=O)[C@H](CO)NC(=O)[C@H](Cc1ccccc1)NC(=O)[C@H](CCCNC(=N)N)NC(=O)[C@H](CCCNC(=N)N)NC(=O)[C@@H](N)CC(C)C)[C@@H](C)O)C(=O)N[C@@H](CC(N)=O)C(=O)N[C@H](C(=O)N[C@@H](CC(N)=O)C(=O)N[C@@H](CC(N)=O)C(=O)N[C@H](C(=O)N[C@@H](CC)C(=O)N[C@@H](CC(N)=O)C(=O)N[C@@H](Cc1ccccc1)C(N)=O)C(C)C)[C@@H](C)CC` [SP2015, LRRFSTMPAMF(Abu)NINNV(Abu)NF] (H-LRRFSTMPAMF[Abu]NINNV[Abu]NF-NH2; N-terminus assumed), the “Migration Inhibition (50 uM)” value (HUVEC [1]) was 100%, the “Adhesion Inhibition (100 uM)” value (HUVEC [2]) was 96% and the “Tube formation Inhibition (100 uM)” value (HUVEC [3]) was “Complete”. The “inhibition of tube formation” value (HUVEC [3]) was “significant inhibition of tube formation”.
With `CC[C@H](NC(=O)[C@H](Cc1ccccc1)NC(=O)[C@H](C)NC(=O)[C@H](Cc1ccccc1)NC(=O)[C@@H]1CCCN1C(=O)[C@H](CCSC)NC(=O)[C@@H](NC(=O)[C@H](CO)NC(=O)[C@H](Cc1ccccc1)NC(=O)[C@H](CCCNC(=N)N)NC(=O)[C@H](CCCNC(=N)N)NC(=O)[C@@H](N)CC(C)C)[C@@H](C)O)C(=O)N[C@@H](CC(N)=O)C(=O)N[C@H](C(=O)N[C@@H](CC(N)=O)C(=O)N[C@@H](CC(N)=O)C(=O)N[C@H](C(=O)N[C@@H](CC)C(=O)N[C@@H](CC(N)=O)C(=O)N[C@@H](Cc1ccccc1)C(N)=O)C(C)C)[C@@H](C)CC` [SP2016, LRRFSTMPFAF(Abu)NINNV(Abu)NF] (H-LRRFSTMPFAF[Abu]NINNV[Abu]NF-NH2; N-terminus assumed) the “Migration Inhibition (50 uM)” value (HUVEC [1]) was 99.6% and the “Adhesion Inhibition (100 uM)” value (HUVEC [2]) was 96%.
For `CC[C@H](NC(=O)[C@H](C)NC(=O)[C@H](CCSC)NC(=O)[C@H](Cc1ccccc1)NC(=O)[C@@H]1CCCN1C(=O)[C@H](CCSC)NC(=O)[C@@H](NC(=O)[C@H](CO)NC(=O)[C@H](Cc1ccccc1)NC(=O)[C@H](CCCNC(=N)N)NC(=O)[C@H](CCCNC(=N)N)NC(=O)[C@@H](N)CC(C)C)[C@@H](C)O)C(=O)N[C@@H](CC(N)=O)C(=O)N[C@H](C(=O)N[C@@H](CC(N)=O)C(=O)N[C@@H](CC(N)=O)C(=O)N[C@H](C(=O)N[C@@H](CC)C(=O)N[C@@H](CC(N)=O)C(=O)N[C@@H](Cc1ccccc1)C(N)=O)C(C)C)[C@@H](C)CC` [SP2017, LRRFSTMPFMA(Abu)NINNV(Abu)NF] (H-LRRFSTMPFMA[Abu]NINNV[Abu]NF-NH2; N-terminus assumed), the “Migration Inhibition (50 uM)” value (HUVEC [1]) was 100% and the “Adhesion Inhibition (100 uM)” value (HUVEC [2]) was 95.5%%.
`CCCC[C@H](NC(=O)[C@H](Cc1ccccc1)NC(=O)[C@@H]1CCCN1C(=O)[C@H](CCSC)NC(=O)[C@@H](NC(=O)[C@H](CO)NC(=O)[C@H](Cc1ccccc1)NC(=O)[C@H](CCCNC(=N)N)NC(=O)[C@H](CCCNC(=N)N)NC(=O)[C@@H](N)CC(C)C)[C@@H](C)O)C(=O)N[C@@H](Cc1ccccc1)C(=O)N[C@@H](CC)C(=O)N[C@@H](CC(N)=O)C(=O)N[C@H](C(=O)N[C@@H](CC(N)=O)C(=O)N[C@@H](CC(N)=O)C(=O)N[C@H](C(=O)N[C@@H](CC)C(=O)N[C@@H](CC(N)=O)C(=O)N[C@@H](Cc1ccccc1)C(N)=O)C(C)C)[C@@H](C)CC` [SP2018, LRRFSTMPF(Nle)F(Abu)NINNV(Abu)NF] (H-LRRFSTMPF[Nle]F[Abu]NINNV[Abu]NF-NH2; N-terminus assumed) was tested, and the “Migration Inhibition (50 uM)” value (HUVEC [1]) was 100% and the “Adhesion Inhibition (100 uM)” value (HUVEC [2]) was 90.9%%.
With `CC[C@H](NC(=O)[C@H](Cc1ccc(Cl)cc1)NC(=O)[C@H](CCSC)NC(=O)[C@H](Cc1ccccc1)NC(=O)[C@@H]1CCCN1C(=O)[C@H](CCSC)NC(=O)[C@@H](NC(=O)[C@H](CO)NC(=O)[C@H](Cc1ccccc1)NC(=O)[C@H](CCCNC(=N)N)NC(=O)[C@H](CCCNC(=N)N)NC(=O)[C@@H](N)CC(C)C)[C@@H](C)O)C(=O)N[C@@H](CC(N)=O)C(=O)N[C@H](C(=O)N[C@@H](CC(N)=O)C(=O)N[C@@H](CC(N)=O)C(=O)N[C@H](C(=O)N[C@@H](CC)C(=O)N[C@@H](CC(N)=O)C(=O)N[C@@H](Cc1ccccc1)C(N)=O)C(C)C)[C@@H](C)CC` [SP2019, LRRFSTMPFM(4-ClPhe)(Abu)NINNV(Abu)NF] (H-LRRFSTMPFM[Phe(4-Cl)][Abu]NINNV[Abu]NF-NH2; N-terminus assumed) the “Migration Inhibition (50 uM)” value (HUVEC [1]) was 98% and the “Adhesion Inhibition (100 uM)” value (HUVEC [2]) was 95.9%.
With LRRFSTMPFMFGNINNVGNF-NH2 [SP2002] the “Migration Inhibition (50 uM)” value (HUVEC [1]) was 87.9%, the “Tube formation Inhibition (100 uM)” value (HUVEC [3]) was “Complete” and the IC50 (HUVEC [4]) was 31.4 µM.
